# Test results: patent US20220362405A1, “COMPOSITIONS AND METHODS FOR TREATING LIVER DISEASE” (UNIVERSITY OF PITTSBURGH-OF THE COMMONWEALTH SYSTEM OF …, priority 2019, published 2022)
# System: AKT
# Experiment: AKT inhibition in normal human hepatocytes (western blot)
# Format: cell-based
# Settings: 5 μM MK-2206, 24 hours, freshly isolated normal human hepatocytes, preliminary experiments
# Source text: Protein extraction and Western blotting. To perform the protein expression analysis, the isolated hepatocytes were divided in two fractions; one fraction was used for total protein extraction, according to standard procedures previously described (Bell A W et al., 2006) and the other fraction was used for nuclear protein isolation. For nuclear protein isolation, between 1×10^7 and 5×10^7 isolated hepatocytes per patient were washed and harvested in 40 mmol/L Tris (pH 7.6), 14 mmol/L NaCl, and 1 mmol/L EDTA, then centrifuged (5 min, 100g). Cell pellets were suspended in 2 mL of hypotonic buffer [10 mmol/L HEPES (pH 7.9), 10 mmol/L NaH2PO4, 1.5 mmol/L MgCl2, 1 mmol/L DTT, 0.5 mmol/L spermidine, and […] with protease and phosphatase inhibitor cocktails (Sigma, St. Louis, Mo.)]. Following 10 minutes of incubation on ice, samples were homogenized in a Dounce homogenizer and then centrifuged (5 min, 800 g). Cell lysis was monitored with trypan blue stain. Supernatants were saved as cytoplasmic extracts. The nuclei pellets were washed two additional times in the same buffer.
# Nuclear proteins were extracted in 50-100 μL of hypertonic buffer [30 mmol/L HEPES (pH 7.9), 25% glycerol, 450 mmol/L NaCl, 12 mmol/L MgCl2, 1 mmol/L DTT, and 0.1 mmol/L EDTA with protease and phosphatase inhibitor cocktails (Sigma, St. Louis, Mo.)] for 45 minutes at 4° C. with continuous agitation. Extracts were centrifuged at 30,000 g, and the supernatants were collected and dialyzed for 2 hours against the same solution but containing 150 mmol/L NaCl. Protein concentration was determined by the Bicinchoninic Acid assay (Sigma, St. Louis, Mo.).
# Western blot analysis performed according to standard procedures (Natarajan A et al., 2007). The intensity of each protein band was quantitated using National Institutes of Health Image J software. The primary antibodies and its dilutions are listed in the above shown Table 2.
# AKT Inhibition in Normal Human Hepatocytes. Normal human hepatocytes (1 million cells/well) were cultured on collagen-coated wells. […]
smiles,measurement,value
NC1(c2ccc(-c3nc4ccn5c(=O)[nH]nc5c4cc3-c3ccccc3)cc2)CCC1 [MK-2206],acetylated nuclear HNF4α expression reduced compared with nontreated controls,14%
same,activated AKT(Thr308) expression reduced compared with nontreated controls,80%
same,nuclear HNF4α expression reduced compared with nontreated controls,25%
